For orientation: IC50 means the concentration needed to halve the response being measured. A higher IC50 goes with weaker potency in that assay.

IC50 data for 54 compounds are collected here from the Kinase Knowledgebase extract (Sharma et al. 2016).

For this assay, the target named is MAPK14 (UniProt Q16539). Put plainly: Inhibition of MAPK14 Kinase Activity.
Sequence of MAPK14 (Q16539 whole entry, looked up): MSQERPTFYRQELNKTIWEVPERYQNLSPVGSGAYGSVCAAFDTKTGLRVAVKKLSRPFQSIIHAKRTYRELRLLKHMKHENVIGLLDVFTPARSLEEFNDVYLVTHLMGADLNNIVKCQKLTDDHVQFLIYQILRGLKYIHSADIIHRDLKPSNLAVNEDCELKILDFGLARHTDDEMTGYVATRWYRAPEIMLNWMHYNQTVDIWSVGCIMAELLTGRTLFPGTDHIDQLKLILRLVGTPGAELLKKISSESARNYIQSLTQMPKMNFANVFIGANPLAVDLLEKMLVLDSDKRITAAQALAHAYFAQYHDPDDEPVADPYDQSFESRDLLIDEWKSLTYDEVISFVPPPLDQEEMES
With `CCCCCCCCS(=O)(=O)n1ncc2cc(-c3cc(C(=O)NC4CC4)cc(F)c3C)ccc21`, the half-inhibitory concentration (IC50) was less than 10 µM.

In turn, `Cc1ccc(C(=O)NC2CC2)cc1-c1ccc2c(cnn2CC(=O)NC(C)C)c1` gave an IC50 of less than 10 µM.

Take `CCCc1ccc(S(=O)(=O)n2ncc3cc(-c4cc(C(=O)NC5CC5)cc(F)c4C)ccc32)cc1`: the half-maximal inhibitory concentration (IC50) is less than 10 µM.

`CCNC(=O)Cc1noc2cc(-c3cc(C(=O)NC4CC4)ccc3C)ccc12` came in with an IC50 of less than 10 µM.

In turn, `Cc1ccc(C(=O)NC2CC2)cc1-c1ccc2c(cnn2S(=O)(=O)CC(F)(F)F)c1` registered an IC50 of less than 10 µM.

In turn, `Cc1ccc(F)cc1S(=O)(=O)n1ncc2cc(-c3cc(C(=O)NC4CC4)cc(F)c3C)ccc21` returned a concentration for half-maximal inhibition (IC50) of less than 10 µM.

With `Cc1c(F)cc(C(=O)NC2CC2)cc1-c1ccc2c(cnn2CC(=O)N2CCOCC2)c1`, the concentration for half-maximal inhibition (IC50) was less than 10 µM.

On to `Cc1ccc(C(=O)NC2CC2)cc1-c1ccc2c(N3CCOCC3)noc2c1`, for which the IC50 was less than 10 µM.

In turn, `Cc1c(F)cc(C(=O)NC2CC2)cc1-c1ccc2c(cnn2S(=O)(=O)c2cccc(Cl)c2)c1` registered an IC50 of less than 10 µM.

For `Cc1c(F)cc(C(=O)NC2CC2)cc1-c1ccc2c(cnn2S(=O)(=O)c2ccsc2)c1`, the half-maximal inhibitory concentration (IC50) is less than 10 µM.

`Cc1c(F)cc(C(=O)NC2CC2)cc1-c1ccc2c(C(=O)NCC3CC3)noc2c1` registered an IC50 of less than 10 µM.

With `CCS(=O)(=O)n1ncc2cc(-c3cc(C(=O)NC4CC4)cc(F)c3C)ccc21`, the IC50 was less than 10 µM.

As for `Cc1c(F)cc(C(=O)NC2CC2)cc1-c1ccc2c(cnn2S(=O)(=O)c2cn(C)c(C)n2)c1`, the IC50 is less than 10 µM.

Consider `Cc1ccc(C(=O)NC2CC2)cc1-c1ccc2c(cnn2S(=O)(=O)C(C)C)c1`, for which the half-inhibitory concentration (IC50) was less than 10 µM.

Compound `COc1cccc(S(=O)(=O)n2ncc3cc(-c4cc(C(=O)NC5CC5)ccc4C)ccc32)c1` yielded an IC50 of less than 10 µM.

For the compound `Cc1ccc(NC(=O)c2ccsc2)cc1-c1ccc2c(C)noc2c1`, the IC50 is less than 10 µM.

Take `Cc1c(F)cc(C(=O)NC2CC2)cc1-c1ccc2c(C(=O)N(C)C)noc2c1`: the concentration for half-maximal inhibition (IC50) was less than 10 µM.

Take `Cc1c(F)cc(C(=O)NC2CC2)cc1-c1ccc2c(cnn2CC(=O)NCC(C)(C)C)c1`: the IC50 was less than 10 µM.

As to `Cc1ccc(C(=O)NC2CC2)cc1-c1ccc2c(cnn2S(=O)(=O)c2ccc(F)cc2)c1`, the half-maximal inhibitory concentration (IC50) was less than 10 µM.

`Cc1ccc(C(=O)Nc2nncs2)cc1-c1ccc2c(C3CCNCC3)noc2c1` came in with an IC50 of less than 10 µM.

For the compound `Cc1ccc(C(=O)NC2CC2)cc1-c1ccc2c(CC(=O)N3CCOCC3)noc2c1`, the IC50 is less than 10 µM.

On to `Cc1ccc(C(=O)NC2CC2)cc1-c1ccc2c(CN3CCCCC3)noc2c1`, for which the IC50 was less than 10 µM.

Consider `Cc1ccc(C(=O)NC2CC2)cc1-c1ccc2c(cnn2CC(=O)NCC2CC2)c1`, for which the IC50 is less than 10 µM.

The compound `Cc1c(F)cc(C(=O)NC2CC2)cc1-c1ccc2c(cnn2S(=O)(=O)C2CC2)c1` came in with an IC50 of less than 10 µM.

On to `Cc1c(F)cc(C(=O)NC2CC2)cc1-c1ccc2c(cnn2S(=O)(=O)c2ccc(C(C)C)cc2)c1`, for which the IC50 is less than 10 µM.

As to `COc1ccc(CNC(=O)Cn2ncc3cc(-c4cc(C(=O)NC5CC5)ccc4C)ccc32)cc1`, the half-inhibitory concentration (IC50) was less than 10 µM.

As for `Cc1ccc(C(=O)NC2CC2)cc1-c1ccc2c(CC(=O)NCC3CC3)noc2c1`, the IC50 was less than 10 µM.

As for `Cc1ccc(C(=O)NC2CC2)cc1-c1ccc2c(cnn2S(=O)(=O)c2cccc3nonc23)c1`, the IC50 is less than 10 µM.

`Cc1c(F)cc(C(=O)NC2CC2)cc1-c1ccc2c(cnn2S(=O)(=O)C(C)C)c1`: the IC50 is less than 10 µM.

In turn, `Cc1c(F)cc(C(=O)NC2CC2)cc1-c1ccc2c(cnn2S(=O)(=O)c2ccc3c(c2)CCO3)c1` came in with an IC50 of less than 10 µM.

Compound `Cc1ccc(S(=O)(=O)n2ncc3cc(-c4cc(C(=O)NC5CC5)ccc4C)ccc32)cc1` came in with a concentration for half-maximal inhibition (IC50) of less than 10 µM.

With `Cc1c(F)cc(C(=O)NC2CC2)cc1-c1ccc2c(ccn2S(=O)(=O)c2ccccc2)c1`, the IC50 is less than 10 µM.

With `Cc1ccc(C(=O)NC2CC2)cc1-c1ccc2c(cnn2S(=O)(=O)Cc2ccccc2)c1`, the 50% inhibitory concentration (IC50) was less than 10 µM.

Turning to `Cc1ccc(C(=O)NC2CC2)cc1-c1ccc2c(C)noc2c1`, the IC50 was less than 10 µM.

`Cc1ccc(C(=O)Nc2cccc(N3CCOCC3)c2)cc1-c1ccc2c(C3CCNCC3)noc2c1` displayed a half-inhibitory concentration (IC50) of less than 10 µM.

In turn, `Cc1c(F)cc(C(=O)NC2CC2)cc1-c1ccc2c(C(=O)NC3CC3)noc2c1` yielded an IC50 of less than 10 µM.

As for `COc1cccc(CNC(=O)Cc2noc3cc(-c4cc(C(=O)NC5CC5)ccc4C)ccc23)c1`, the 50% inhibitory concentration (IC50) was less than 10 µM.

In turn, `Cc1c(F)cc(C(=O)NC2CC2)cc1-c1ccc2c(cnn2S(=O)(=O)/C=C/c2ccccc2)c1` registered a 50% inhibitory concentration (IC50) of less than 10 µM.

Take `Cc1c(F)cc(C(=O)NC2CC2)cc1-c1ccc2c(cnn2S(=O)(=O)c2ccc(Cl)s2)c1`: the IC50 was less than 10 µM.

With `Cc1c(F)cc(C(=O)NC2CC2)cc1-c1ccc2c(c1)c(C)nn2S(=O)(=O)c1cccs1`, the concentration for half-maximal inhibition (IC50) was less than 10 µM.

The compound `Cc1ccc(C(=O)NC2CC2)cc1-c1ccc2c(cnn2S(=O)(=O)c2ccccc2)c1` gave an IC50 of less than 10 µM.

For `CCCNC(=O)c1noc2cc(-c3cc(C(=O)NC4CC4)cc(F)c3C)ccc12`, the IC50 was less than 10 µM.

`Cc1c(F)cc(C(=O)NC2CC2)cc1-c1ccc2c(cnn2S(=O)(=O)c2ccccc2)c1`: the IC50 was less than 10 µM.

Turning to `COC(=O)Cn1ncc2cc(-c3cc(C(=O)NC4CC4)cc(F)c3C)ccc21`, the concentration for half-maximal inhibition (IC50) is less than 10 µM.

`CCS(=O)(=O)n1ncc2cc(-c3cc(C(=O)NC4CC4)ccc3C)ccc21` yielded an IC50 of less than 10 µM.

`CCCS(=O)(=O)n1ncc2cc(-c3cc(C(=O)NC4CC4)ccc3C)ccc21`: the IC50 was less than 10 µM.

With `Cc1ccc(C(=O)NC2CC2)cc1-c1ccc2c(S(=O)(=O)c3ccc(F)cc3)n[nH]c2c1`, the 50% inhibitory concentration (IC50) was less than 10 µM.

Regarding `Cc1c(F)cc(C(=O)NC2CC2)cc1-c1ccc2c(cnn2S(C)(=O)=O)c1`, the IC50 is less than 10 µM.

For the compound `Cc1ccc(S(=O)(=O)n2ncc3cc(-c4cc(C(=O)NC5CC5)cc(F)c4C)ccc32)cc1`, the IC50 was less than 10 µM.

Compound `Cc1ccc(C(=O)NC2CC2)cc1-c1ccc2c(cnn2S(=O)(=O)c2c(C)nn(C)c2C)c1` came in with a concentration for half-maximal inhibition (IC50) of less than 10 µM.

`Cc1ccc(NC(=O)c2ccoc2)cc1-c1ccc2c(C)noc2c1` displayed an IC50 of less than 10 µM.

Take `COc1cccc(NC(=O)c2ccc(C)c(-c3ccc4c(C5CCNCC5)noc4c3)c2)c1`: the IC50 is less than 10 µM.

Take `Cc1c(F)cc(C(=O)NC2CC2)cc1-c1ccc2c(cnn2S(=O)(=O)c2ccccc2Cl)c1`: the IC50 is less than 10 µM.

Take `Cc1ccc(CNC(=O)Cn2ncc3cc(-c4cc(C(=O)NC5CC5)cc(F)c4C)ccc32)cc1`: the IC50 is less than 10 µM.
